In patent publication US6960594B2, “Thiophene and furan 2,5-dicarboxamides useful in the treatment of cancer” (Shire BioChem Inc., priority 1998, dated 2005):

Columns and labels:
[1] = system: Chick chorioallantoic membrane (CAM) capillary formation driven by VPF/VEGF165; experiment: Chick chorioallantoic membrane (CAM) mesh assay; format: in vivo, chicken; details: significant if >25%
Experimental: Fertilized white leghorn chicken eggs (SPAFAS Inc., Norwich, Conn.) were received at day 0 and incubated for 3 days at 37 C with constant humidity. On day 3, eggs were rinsed with 70% ethanol and opened into 100 mm^2 tissue culture coated Petri dishes under aseptic conditions. The embryos were then returned to a humidified 38 C incubator for 7-9 additional days.
Vitrogen (Collagen Biomaterials, Palo Alto, Calif.) at a final concentration of 0.73 mg/mL and Matrigel (Becton Dickinson, Bedford, Mass.) at a final concentration of 10 mg/mL was directly pipetted onto Nylon meshes with 250 μm^2 openings which were cut into 4 mm×4 mm squares and autoclaved. Polymerization of meshes were under aseptic conditions, on bacteriological Petri dishes. The polymerization conditions for each substrate were identical; after mixing with or without 250 μg of VPF/VEGF165 (Peprotech, Rocky Hill, N.J.) and/or compounds of interest, 40 μL were pipetted onto each mesh in a bacteriological Petri dish. The Petri dish was placed in a humidified 37 C incubator with 5% CO2 for 30 minutes to allow polymerization followed by an incubation at 4° C. for 2 hours.
In a tissue culture enclosure, meshes were placed onto the periphery of the CAM of a day 12-14 embryo, excluding areas containing major vessels. The embryos were then returned to the humidified 38° C. incubator with 3% CO2 for 24 to 48 additional hours.
Embryos were removed from the incubator and meshes were viewed under a dissecting microscope for gross evaluation. Injection of 400 μL FITC dextran, MW 2,000,000 (Sigma, St. Louis, Mo.) through glass microcapillary tubes by infusion into the umbilical vein was performed at a rate of 200 μl per minute. The FITC dextran was allowed to circulate for 5 minutes and 3.7% formaldehyde in PBS was applied directly on each mesh. The embryos were then incubated at 40° C. for 5 minutes and the meshes were dissected off the CAM and fixed in 3.7% formaldehyde for 10 minutes to overnight.
After fixation, meshes were mounted on slides with 90% glycerol in PBS and visualized on an inverted fluorescence microscope. A Nikon Diaphot with a Sony DXC-151A camera attached to the side port was used for capture of images and analysis was with the NIH Image 1.61 software program. For each mesh, 5 random staggered images (approximately 600 μm each) were captured. The areas of high intensity were highlighted and measured. Results are expressed as ability to suppress capillary formation after subtraction from negative control. Values were calculated as a inhibition, considering 100% the capillary density achieved by VPF in the presence of vitrogen alone minus the bakground levels in the absence of VPF. Negative values indicated angiogenic stimulation above the VPF positive control.

α5β1 = biological target: T1, α5β1 (Homo sapiens, UniProt P05556+P08648); experiment: Cell adhesion assay, K562 on fibronectin; format: cell-based; details: K562 cells, adhesion to fibronectin, 1 hour
T1 construct: Cells HT29, K562, or K562 transfected with αvβ3; endogenous in cells; host or cells: K562
Experimental: (§1) The wells of 96-well plates (Immunolon) were coated, by incubation overnight at 4° C., with 5 ug/mL vitronectin, 2 ug/mL osteopontin, or fibronectin or 10 mg/mL BSA in PBS. The protein solution was flicked out and the wells were blocked with 10 mg/mL BSA (0.1 mL) for 1-2 hours at 37° C. Cells HT29, K562, or K562 transfected with αvβ3 (Blystone et al., 1994) were loaded with a fluorescent marker, 5-chloromethylfluorescein diacetate (Molecular Probes, Eugene, Oreg.) for 1 hour at 37° C., then incubated in fresh medium without the fluorescent marker for 1 hour. Cells were lifted with trypsin-EDTA and washed two times with Hank's balanced salt solution minus cations (Sigma) supplemented with 1 mM MgCl2 Cells (75,000 cells/well) were added to coated plates in triplicate and allowed to attach at 37° C. for 1 hour in the presence or absence of specific antibodies (5 ug/mL) or 10-fold dilutions of compounds of interest starting at 10 uM. Nonadherent cells were removed by gentle washing twice with PBS. The adherent cells were solubilized with 1% triton x-100 and detected using a fluorescence plate reader (DYNEX Technologies). The number of attached cells was calculated based upon standard curves for each cell line used in the experiment. Non-specific cell attachment (attachment to wells coated with BSA) was always less than 5%.

αvβ5 = biological target: T2, αvβ5 (Homo sapiens, UniProt P06756+P18084); experiment: Cell adhesion assay, HT29 on vitronectin; format: cell-based
T2 construct: Cells HT29, K562, or K562 transfected with αvβ3; endogenous in cells; host or cells: HT29
Experimental: as §1, with “Cells HT29, K562, or K562 transfected with αvβ3 (Blystone et al., 1994) were loaded with a fluorescent marker, 5-chloromethylfluorescein diacetate (Molecular Probes, Eugene, Oreg.) for 1 hour at 37° C., then incubated in fresh medium without the fluorescent marker for 1 hour.” left out, “experiment.” for “experiment. Non-specific cell attachment (attachment to wells coated with BSA) was always less than 5%.”

HMVEC = experiment: Cell proliferation and cytotoxicity MTT assay, HMVEC; format: cell-based; details: HMVEC, 72 hours culture
Experimental: The wells of microtiter plates were seeded with 2000 cells/well T24, 2500 cells/well HT29 or 5000 cells/well HMVEC (Cell Systems) in 100 uL, followed by an overnight culture for cell adhesion. The next day, the media is supplemented with 100 uL of 10-fold dilution of compound of interest starting at 10 uM. Following culture for 72 hours, 3-(4,5-dimethyl-2-thiazolyl)-2,5-diphenyltetrazolium bromide (MTT; Sigma) at 2 mg/mL was added to each well (50 uL/well) and further incubated for 4 hours at 37° C. The medium was flicked out and 200 uL of a 1:1 solution of ethanol:acetone followed by 25 uL of glycine buffer (0.1 M glycine, 0.1M NaCl, pH 10.5) is added and the color measured by the absorbance at 570 nm.

αvβ3 = biological target: T3, αvβ3 (Homo sapiens, UniProt P05106+P06756); experiment: Cell adhesion assay, K562-tr on osteopontin; format: cell-based
T3 construct: expressed in transfected cells; host or cells: K562
Experimental: as §1, with “Cells HT29, K562, or K562 transfected with αvβ3 (Blystone et al., 1994) were loaded with a fluorescent marker, 5-chloromethylfluorescein diacetate (Molecular Probes, Eugene, Oreg.) for 1 hour at 37° C., then incubated in fresh medium without the fluorescent marker for 1 hour.” left out, “experiment.” for “experiment. Non-specific cell attachment (attachment to wells coated with BSA) was always less than 5%.”

T2 sequence (P06756 31-889 limits assumed): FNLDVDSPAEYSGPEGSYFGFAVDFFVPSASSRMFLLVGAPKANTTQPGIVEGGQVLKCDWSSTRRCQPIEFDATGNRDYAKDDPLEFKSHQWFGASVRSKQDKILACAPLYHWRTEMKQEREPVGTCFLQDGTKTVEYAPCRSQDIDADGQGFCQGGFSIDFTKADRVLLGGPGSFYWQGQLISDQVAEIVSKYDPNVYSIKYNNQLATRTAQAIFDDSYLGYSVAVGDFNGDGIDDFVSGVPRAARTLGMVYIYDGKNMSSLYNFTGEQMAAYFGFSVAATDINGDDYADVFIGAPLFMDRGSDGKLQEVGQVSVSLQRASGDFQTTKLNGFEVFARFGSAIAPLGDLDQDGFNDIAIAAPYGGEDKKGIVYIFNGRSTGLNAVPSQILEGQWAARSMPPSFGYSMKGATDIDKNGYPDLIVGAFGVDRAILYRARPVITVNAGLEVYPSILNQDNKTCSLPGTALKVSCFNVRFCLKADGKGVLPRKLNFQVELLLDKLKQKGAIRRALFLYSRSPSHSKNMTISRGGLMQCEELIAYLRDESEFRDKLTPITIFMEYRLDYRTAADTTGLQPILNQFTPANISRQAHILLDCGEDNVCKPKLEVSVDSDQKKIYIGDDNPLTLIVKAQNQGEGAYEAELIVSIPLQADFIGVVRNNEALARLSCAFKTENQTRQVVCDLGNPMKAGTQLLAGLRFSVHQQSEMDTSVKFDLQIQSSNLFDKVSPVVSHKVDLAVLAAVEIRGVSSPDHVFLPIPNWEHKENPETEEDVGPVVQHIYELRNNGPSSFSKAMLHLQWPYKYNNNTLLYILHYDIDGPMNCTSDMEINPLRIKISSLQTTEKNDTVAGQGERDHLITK
T2 sequence (P06756 891-1048 partner limits assumed): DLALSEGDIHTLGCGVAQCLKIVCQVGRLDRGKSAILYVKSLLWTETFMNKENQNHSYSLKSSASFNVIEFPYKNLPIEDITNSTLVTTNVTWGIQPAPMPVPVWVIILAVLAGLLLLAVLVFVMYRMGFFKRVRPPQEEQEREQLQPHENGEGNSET
T2 sequence (P18084 24-799): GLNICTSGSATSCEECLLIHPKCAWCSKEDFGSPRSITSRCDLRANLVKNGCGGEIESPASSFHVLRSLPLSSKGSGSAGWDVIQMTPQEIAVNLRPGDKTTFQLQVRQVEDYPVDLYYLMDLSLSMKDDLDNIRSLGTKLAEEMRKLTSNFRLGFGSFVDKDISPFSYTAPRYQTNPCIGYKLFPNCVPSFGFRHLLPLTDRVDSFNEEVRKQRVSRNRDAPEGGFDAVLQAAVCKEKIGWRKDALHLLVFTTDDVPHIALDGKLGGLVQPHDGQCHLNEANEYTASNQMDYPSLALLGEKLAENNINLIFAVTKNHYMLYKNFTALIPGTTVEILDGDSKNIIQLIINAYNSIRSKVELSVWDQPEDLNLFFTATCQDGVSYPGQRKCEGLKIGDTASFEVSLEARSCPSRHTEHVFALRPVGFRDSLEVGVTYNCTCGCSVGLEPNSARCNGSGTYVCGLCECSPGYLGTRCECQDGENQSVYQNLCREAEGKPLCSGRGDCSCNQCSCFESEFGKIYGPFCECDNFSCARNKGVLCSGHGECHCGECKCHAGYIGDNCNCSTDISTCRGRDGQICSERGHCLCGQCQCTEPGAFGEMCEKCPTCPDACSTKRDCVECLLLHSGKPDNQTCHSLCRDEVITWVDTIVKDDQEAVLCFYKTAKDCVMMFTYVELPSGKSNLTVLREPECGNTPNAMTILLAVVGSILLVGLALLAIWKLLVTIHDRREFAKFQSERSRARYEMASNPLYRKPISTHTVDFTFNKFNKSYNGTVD
T3 sequence (P06756 31-889 limits assumed): as the sequence (P06756 31-889 limits assumed) above
T3 sequence (P06756 891-1048 partner limits assumed): as the sequence (P06756 891-1048 partner limits assumed) above
T3 sequence (P05106 27-788): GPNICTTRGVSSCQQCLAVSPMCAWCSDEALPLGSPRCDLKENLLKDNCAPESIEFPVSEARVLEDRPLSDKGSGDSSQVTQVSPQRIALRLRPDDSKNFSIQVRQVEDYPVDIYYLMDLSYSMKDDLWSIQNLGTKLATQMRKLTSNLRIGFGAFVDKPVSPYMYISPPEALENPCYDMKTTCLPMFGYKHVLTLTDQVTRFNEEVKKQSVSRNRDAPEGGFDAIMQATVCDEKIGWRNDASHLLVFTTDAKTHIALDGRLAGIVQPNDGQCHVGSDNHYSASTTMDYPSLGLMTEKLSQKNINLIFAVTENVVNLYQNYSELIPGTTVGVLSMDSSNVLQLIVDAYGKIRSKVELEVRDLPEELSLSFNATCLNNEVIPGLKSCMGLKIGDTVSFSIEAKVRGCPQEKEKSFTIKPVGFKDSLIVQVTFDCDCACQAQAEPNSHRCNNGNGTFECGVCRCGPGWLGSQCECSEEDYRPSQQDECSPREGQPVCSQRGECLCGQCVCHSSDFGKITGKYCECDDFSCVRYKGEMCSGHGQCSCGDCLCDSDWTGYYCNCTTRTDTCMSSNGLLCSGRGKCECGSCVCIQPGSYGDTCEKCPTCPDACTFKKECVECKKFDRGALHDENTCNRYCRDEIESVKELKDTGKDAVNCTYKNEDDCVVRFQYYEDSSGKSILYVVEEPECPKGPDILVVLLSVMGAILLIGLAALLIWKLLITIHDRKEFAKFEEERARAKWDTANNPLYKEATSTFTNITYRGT
T1 sequence (P08648 42-894 limits assumed): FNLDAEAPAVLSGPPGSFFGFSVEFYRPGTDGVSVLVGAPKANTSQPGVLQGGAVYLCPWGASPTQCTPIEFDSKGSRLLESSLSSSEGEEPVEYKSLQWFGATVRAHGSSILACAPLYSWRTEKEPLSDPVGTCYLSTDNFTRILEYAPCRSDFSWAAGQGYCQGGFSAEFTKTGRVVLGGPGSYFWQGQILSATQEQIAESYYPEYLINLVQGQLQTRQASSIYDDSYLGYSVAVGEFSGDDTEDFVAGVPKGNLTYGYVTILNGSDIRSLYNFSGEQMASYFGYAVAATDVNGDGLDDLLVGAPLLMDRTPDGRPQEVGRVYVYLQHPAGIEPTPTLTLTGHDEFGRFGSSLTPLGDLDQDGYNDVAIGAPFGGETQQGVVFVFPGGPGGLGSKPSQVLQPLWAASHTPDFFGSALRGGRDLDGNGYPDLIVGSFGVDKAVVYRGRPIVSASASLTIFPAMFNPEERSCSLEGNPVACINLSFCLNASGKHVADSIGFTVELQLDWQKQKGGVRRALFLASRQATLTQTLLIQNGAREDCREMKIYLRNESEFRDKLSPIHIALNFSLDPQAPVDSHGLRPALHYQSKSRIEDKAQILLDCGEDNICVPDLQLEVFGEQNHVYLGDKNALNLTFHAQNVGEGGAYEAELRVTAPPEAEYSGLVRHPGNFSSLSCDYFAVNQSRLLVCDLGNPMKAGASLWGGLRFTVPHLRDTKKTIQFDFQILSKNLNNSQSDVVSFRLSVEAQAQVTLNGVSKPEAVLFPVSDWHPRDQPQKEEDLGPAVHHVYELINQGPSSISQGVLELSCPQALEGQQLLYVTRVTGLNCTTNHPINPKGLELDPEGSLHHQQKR
T1 sequence (P08648 895-1049 partner limits assumed): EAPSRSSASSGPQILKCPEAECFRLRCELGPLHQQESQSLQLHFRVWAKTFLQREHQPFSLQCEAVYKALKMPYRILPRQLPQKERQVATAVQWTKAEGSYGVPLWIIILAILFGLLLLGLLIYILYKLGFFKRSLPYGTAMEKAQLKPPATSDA
T1 sequence (P05556 21-798): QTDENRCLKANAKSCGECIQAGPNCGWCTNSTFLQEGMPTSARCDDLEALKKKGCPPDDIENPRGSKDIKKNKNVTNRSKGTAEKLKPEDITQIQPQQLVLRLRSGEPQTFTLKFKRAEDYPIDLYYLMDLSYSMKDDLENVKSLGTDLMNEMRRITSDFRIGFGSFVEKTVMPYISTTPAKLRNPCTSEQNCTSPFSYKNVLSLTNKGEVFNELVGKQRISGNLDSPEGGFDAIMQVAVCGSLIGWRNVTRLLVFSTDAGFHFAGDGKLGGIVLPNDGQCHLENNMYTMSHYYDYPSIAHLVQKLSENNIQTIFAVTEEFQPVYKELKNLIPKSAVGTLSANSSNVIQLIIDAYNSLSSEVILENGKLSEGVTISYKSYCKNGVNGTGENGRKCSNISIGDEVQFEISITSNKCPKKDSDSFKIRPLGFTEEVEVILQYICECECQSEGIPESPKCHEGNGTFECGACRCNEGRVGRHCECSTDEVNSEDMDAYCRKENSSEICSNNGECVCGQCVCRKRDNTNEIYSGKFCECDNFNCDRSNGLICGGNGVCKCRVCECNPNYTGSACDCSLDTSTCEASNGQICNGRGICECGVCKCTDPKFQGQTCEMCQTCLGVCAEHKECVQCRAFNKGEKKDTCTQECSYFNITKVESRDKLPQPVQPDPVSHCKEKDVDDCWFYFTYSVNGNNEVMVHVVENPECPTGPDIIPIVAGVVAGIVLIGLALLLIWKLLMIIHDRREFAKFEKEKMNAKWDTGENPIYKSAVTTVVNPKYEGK

NCCCNC(=O)c1ccc(C(=O)NC(CC(=O)O)c2ccccc2)s1.O=C(O)C(F)(F)F (centres unmarked) [Compound VII, 3-{[5-(3-Amino-propylcarbamoyl)-thiophene-2-carbonyl]-amino}-3-phenyl-propionic acid trifluoroacetic acid salt]
% of inhibition at 33 μg/mesh in the presence of VEGF [1]: 34%
IC50 (α5β1): > 10 µM
IC50 (αvβ5): > 10 µM
IC50 (HMVEC): > 10 µM
IC50 (αvβ3): > 10 µM
